Laboratory results as given in PMC4339887, “Selective Sirt2 inhibition by ligand-induced rearrangement of the active site” (Nature Communications, 2015).
Entries after “also recorded” stand apart in the source; their conditions may differ.

What was measured:
[1] = tested on: acetylation of the microtubule network in HeLa cells; assay: immunofluorescence microscopy of acetylated microtubule network; format: cell-based; conditions: 4 h
Text: Cells were then stained with an anti-acetyl-α-tubulin antibody (Sigma-Aldrich, T6793) and then probed with a secondary Alexa 546 conjugated anti-mouse-antibody (Invitrogen). Nuclei were counterstained with DAPI (4',6-diamidino-2-phenylindole). Coverslips were mounted with FluoroMount (Sigma-Aldrich) and sealed with DPX Mountant (Sigma-Aldrich). Images of the mounted samples were acquired on a Leica DM500 microscope equipped with a Leica DFC 395 FX camera and HBO 100 W lamp[40]. The microscope was run with the Leica Application Suite 4.4.0 software. Chroma UV filter set (No. C40888) and Leica N2.1 filter set (No. 513832) were used for DAPI and Alexa 546 signal acquisition, respectively, with a HCX FL Fluotar 40x/0.75 (dry) objective. Further details about the equipment and the settings that were used to acquire the images are found in the Supplementary Methods section. Unprocessed images are found in Supplementary Fig. 9. […]
Immunocytochemistry equipment and settings. The signal of Alexa 546 and DAPI of the same region were acquired with constant illumination parameters as grayscale 8-bit 600 dpi tiff files (1600u 1200 pixels). Alexa 546 was acquired after 639.1 ms with a gamma factor of 0.65 without multiplying. The gain was set to 1. DAPI-stained images were acquired after about 20 ms with the same parameters as the one for Alexa 546 image acquisition. The temperature in the microscope room was kept at RT. Representative regions of each samples were processed with Adobe Photoshop CS2 to generate images in RGB mode by copying the appropriate original greyscale images to the blue (nuclei, DAPI) and the red (acetylated D-tubulin signal, Alexa 546) channel, respectively. As adjustment, a minimal background subtraction was applied on all images during processing in the same manner. The resolution was changed from 600 dpi (source images) to 450 dpi without resampling (Fig. 7 of the main article). LUT (CLUT) of grayscale images of the acetylated D-tubulin signal and of the DAPI signal are shown in Supplementary Fig. 8. […]

human Sirt5 = target: T1, human Sirt5 (Homo sapiens, UniProt Q9NXA8); assay: HPLC-based assay, non-labelled succinyl-lysine peptide; format: biochemical; conditions: 200 μM, succinyl-lysine substrate
T1 construct: human Sirt5_34–302 (Uniprot: Q9NXA8); made in house
T1 sequence (Q9NXA8 34-302): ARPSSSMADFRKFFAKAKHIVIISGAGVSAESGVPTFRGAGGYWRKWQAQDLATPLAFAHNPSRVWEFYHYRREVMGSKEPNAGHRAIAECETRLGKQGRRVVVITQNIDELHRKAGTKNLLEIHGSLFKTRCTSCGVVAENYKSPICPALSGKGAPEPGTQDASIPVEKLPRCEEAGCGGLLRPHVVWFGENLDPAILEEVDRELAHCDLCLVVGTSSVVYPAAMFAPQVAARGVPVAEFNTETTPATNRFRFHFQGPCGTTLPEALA

KDAC6 = target: T2, KDAC6 (Homo sapiens, UniProt Q9UBN7); assay: in vitro KDAC1/6 assay, substrate ZMAL; format: biochemical
T2 construct: purchased Enzo Life Sciences
T2 sequence (Q9UBN7 1-1215): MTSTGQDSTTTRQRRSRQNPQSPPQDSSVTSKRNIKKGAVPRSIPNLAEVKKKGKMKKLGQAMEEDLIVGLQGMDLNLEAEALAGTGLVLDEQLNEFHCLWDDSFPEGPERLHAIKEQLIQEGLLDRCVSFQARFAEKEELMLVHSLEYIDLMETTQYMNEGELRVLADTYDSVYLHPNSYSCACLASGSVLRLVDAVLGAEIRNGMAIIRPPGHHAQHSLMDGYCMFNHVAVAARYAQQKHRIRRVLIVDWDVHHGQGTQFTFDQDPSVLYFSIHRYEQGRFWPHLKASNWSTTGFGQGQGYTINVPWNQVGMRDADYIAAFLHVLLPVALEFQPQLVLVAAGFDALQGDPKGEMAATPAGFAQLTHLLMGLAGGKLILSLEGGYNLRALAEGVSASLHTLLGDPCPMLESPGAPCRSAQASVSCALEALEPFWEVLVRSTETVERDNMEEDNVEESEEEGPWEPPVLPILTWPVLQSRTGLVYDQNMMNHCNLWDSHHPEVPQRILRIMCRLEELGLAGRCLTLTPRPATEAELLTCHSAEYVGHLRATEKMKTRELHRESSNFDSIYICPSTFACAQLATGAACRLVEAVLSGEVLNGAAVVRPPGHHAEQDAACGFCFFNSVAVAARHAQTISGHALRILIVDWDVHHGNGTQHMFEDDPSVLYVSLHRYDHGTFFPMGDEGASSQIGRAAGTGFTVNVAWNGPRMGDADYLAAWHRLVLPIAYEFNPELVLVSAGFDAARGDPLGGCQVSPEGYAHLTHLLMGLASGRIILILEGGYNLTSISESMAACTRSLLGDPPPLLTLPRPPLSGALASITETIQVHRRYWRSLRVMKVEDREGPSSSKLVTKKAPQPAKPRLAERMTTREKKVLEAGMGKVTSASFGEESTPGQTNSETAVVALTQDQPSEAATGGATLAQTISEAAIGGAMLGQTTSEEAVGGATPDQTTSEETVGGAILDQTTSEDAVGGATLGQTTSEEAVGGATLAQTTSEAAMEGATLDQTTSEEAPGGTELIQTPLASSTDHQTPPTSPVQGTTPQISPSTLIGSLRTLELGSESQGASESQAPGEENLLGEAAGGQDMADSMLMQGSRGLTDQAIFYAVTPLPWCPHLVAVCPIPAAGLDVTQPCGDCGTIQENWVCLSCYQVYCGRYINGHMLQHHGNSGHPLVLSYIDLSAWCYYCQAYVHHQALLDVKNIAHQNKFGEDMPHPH
Method: 5 times), Fmoc deprotection and amino acid coupling were repeated until the last amino acid was coupled and the Fmoc group was removed. The resin was washed with dichloromethane (DCM, 3 min, 5 times), methanol (5 min, 3 times) and DCM (3 min, 5 times). […]
acid (TFA) at RT (1 h, 2 times). Cleaved peptide was precipitated with cold diethylether, filtrated and dried. The peptide was purified by semi-preparative HPLC (Merck-Hitachi High Speed LC system) using a Merck Hibar LiChrosorb RP-8 column (250–25 mm, 7 μm). For separation a linear gradient from 20–50% (vol/vol) acetonitrile (ACN) with 0.1% (vol/vol) TFA in 60 min was applied (flow-rate: 8 ml min-1). […]
high-throughput fluorescence-based assay using the substrate ZMAL (Z-Lys(Acetyl)- […]
A solution that contained DMSO was used a negative
The reaction was started through the addition of KDAC1 (Enzo Life Sciences, 10 μL) or […]
initial state conditions the substrate conversion was adjusted to 10–30% prior to inhibition tests. The reaction was stopped by the addition of a solution containing trypsin and TSA […]
Then fluorescence intensity of the released fluorophore of the deacetylated lysine derivative was measured in a microplate […]
reader (BMG Polarstar, Oex 390 nm, Oem 460 nm). The amount of inhibition was determined with respect to the mixture with only DMSO.
Immunocytochemistry equipment and settings. […]

Cc1cc(C)nc(SCC(=O)Nc2ncc(Cc3cccc4ccccc34)s2)n1 [SirReal2]
acetylation level of the microtubule network ([1]; 20 μM): induces hyperacetylation; also recorded: partial increase; also recorded: hyperacetylation of the microtubule network
acetylation level of the microtubule network ([1]; 50 μM): induces hyperacetylation
effect on activity of Sirt5 (human Sirt5): very little effect
activity of KDAC6 (KDAC6): does not affect; also recorded: not affected
